Results taken from ChEMBL document CHEMBL1201862, “PubChem BioAssay data set” (2004).
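48-hour exposure; five concentrations; linearly interpolated endpoints. GI50 = concentration required for 50% inhibition of growth.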 The source made the active and inactive calls. No stated cut-off is given here; in the data, active = GI50 up to about 1.1 µM and inactive = higher.

What was measured:
Assay in all cases: NCI tumour cell line growth inhibition, 48 h
SN12C = test system: SN12C
T47D = test system: T47D
NCI-H23 = test system: NCI-H23
K562 = test system: K562
MOLT-4 = test system: MOLT-4
U-251 = test system: U-251
HCC 2998 = test system: HCC 2998
IGROV-1 = test system: IGROV-1
COLO 205 = test system: COLO 205
MDA-MB-231 = test system: MDA-MB-231
SK-MEL-28 = test system: SK-MEL-28
SNB-19 = test system: SNB-19
SNB-75 = test system: SNB-75
KM12 = test system: KM12
MDA-N = test system: MDA-N
DU-145 = test system: DU-145
HOP-92 = test system: HOP-92
SK-MEL-5 = test system: SK-MEL-5
SR = test system: SR
A549 = test system: A549

Row | Compound | GI50 (SN12C) | GI50 (T47D) | GI50 (NCI-H23) | GI50 (K562) | GI50 (MOLT-4) | GI50 (U-251) | GI50 (HCC 2998) | GI50 (IGROV-1) | GI50 (COLO 205) | GI50 (MDA-MB-231) | GI50 (SK-MEL-28) | GI50 (SNB-19) | GI50 (SNB-75) | GI50 (KM12) | GI50 (MDA-N) | GI50 (DU-145) | GI50 (HOP-92) | GI50 (SK-MEL-5) | GI50 (SR) | GI50 (A549)
1 | CS(=O)(=O)N1CC(CCl)c2ccc(NO)cc21 (stereo unspecified) | 15.3 µM (inactive) | 21.9 µM (inactive) | 5.06 µM (inactive) | 2.88 µM (inactive) | 3.48 µM (inactive) | 11.4 µM (inactive) | 14.4 µM (inactive) | 13.6 µM (inactive) | 18 µM (inactive) | 15.6 µM (inactive) | 19.1 µM (inactive) | 22.5 µM (inactive) | 1.77 µM (inactive) | 14.6 µM (inactive) | 16.9 µM (inactive) | 6.89 µM (inactive) | 14.4 µM (inactive) | 12.3 µM (inactive) | 2.3 µM (inactive) | 35.2 µM (inactive)
2 | C[C@]12CC[C@H](O)CC1=CC[C@@H]1C2CC[C@]2(C)c3n[nH]nc3CC12 (stereo partly specified) | > 100 µM (inactive) | > 100 µM (inactive) | > 100 µM (inactive) | 39.8 µM (inactive) | > 100 µM (inactive) | > 100 µM (inactive) | > 100 µM (inactive) | > 100 µM (inactive) | > 100 µM (inactive) | > 100 µM (inactive) | > 100 µM (inactive) | > 100 µM (inactive) | 82 µM (inactive) | > 100 µM (inactive) | 36.3 µM (inactive) | > 100 µM (inactive) | > 100 µM (inactive) | > 100 µM (inactive) | 25.9 µM (inactive) | > 100 µM (inactive)
3 | C=C(c1ccccc1)c1ccccc1-c1cc(-c2ccccc2)cc(-c2ccccc2)n1 | > 100 µM (inactive) | 9.08 µM (inactive) | > 100 µM (inactive) | 53.6 µM (inactive) | > 100 µM (inactive) | > 100 µM (inactive) | 98.6 µM (inactive) | > 100 µM (inactive) | – | > 100 µM (inactive) | > 100 µM (inactive) | > 100 µM (inactive) | > 100 µM (inactive) | > 100 µM (inactive) | > 100 µM (inactive) | > 100 µM (inactive) | > 100 µM (inactive) | 78.3 µM (inactive) | > 100 µM (inactive) | > 100 µM (inactive)
4 | O=C(CSc1nnc(SCC(=O)NN=C2CCCCC2)s1)NN=C1CCCCC1 | > 100 µM (inactive) | > 100 µM (inactive) | > 100 µM (inactive) | > 100 µM (inactive) | > 100 µM (inactive) | > 100 µM (inactive) | > 100 µM (inactive) | > 100 µM (inactive) | > 100 µM (inactive) | > 100 µM (inactive) | > 100 µM (inactive) | > 100 µM (inactive) | > 100 µM (inactive) | > 100 µM (inactive) | > 100 µM (inactive) | > 100 µM (inactive) | > 100 µM (inactive) | > 100 µM (inactive) | > 100 µM (inactive) | > 100 µM (inactive)
5 | O=C1NC(=O)C23C(=O)NC(=O)C12C1C=CC3CC1 (stereo unspecified) | > 10 µM (inactive) | > 10 µM (inactive) | > 10 µM (inactive) | > 10 µM (inactive) | > 10 µM (inactive) | > 10 µM (inactive) | > 10 µM (inactive) | > 10 µM (inactive) | > 10 µM (inactive) | > 10 µM (inactive) | > 10 µM (inactive) | > 10 µM (inactive) | > 10 µM (inactive) | > 10 µM (inactive) | > 10 µM (inactive) | > 10 µM (inactive) | > 10 µM (inactive) | > 10 µM (inactive) | > 10 µM (inactive) | > 10 µM (inactive)
6 | COCCOCc1nc(C#N)c(N)o1 | > 100 µM (inactive) | > 100 µM (inactive) | > 100 µM (inactive) | > 100 µM (inactive) | > 100 µM (inactive) | > 100 µM (inactive) | > 100 µM (inactive) | > 100 µM (inactive) | > 100 µM (inactive) | > 100 µM (inactive) | > 100 µM (inactive) | > 100 µM (inactive) | > 100 µM (inactive) | > 100 µM (inactive) | > 100 µM (inactive) | > 100 µM (inactive) | > 100 µM (inactive) | > 100 µM (inactive) | > 100 µM (inactive) | > 100 µM (inactive)
7 | Cn1c2ccccc2c2c3c(=O)[nH][nH]c(=O)c3c3c4ccccc4n(C)c3c21 | > 100 µM (inactive) | 0.284 µM (active) | 12.5 µM (inactive) | 58.5 µM (inactive) | > 100 µM (inactive) | > 100 µM (inactive) | > 100 µM (inactive) | > 100 µM (inactive) | > 89.1 µM (inactive) | > 100 µM (inactive) | > 100 µM (inactive) | > 100 µM (inactive) | > 100 µM (inactive) | 30.1 µM (inactive) | > 100 µM (inactive) | > 100 µM (inactive) | > 100 µM (inactive) | > 100 µM (inactive) | < 0.01 µM (active) | > 100 µM (inactive)
8 | Cc1cnc2c(c1)C(=O)C1=C(C2=O)C2OC(=O)CC2OC1(C)C (stereo unspecified) | 0.161 µM (active) | 0.304 µM (active) | 0.321 µM (active) | 0.0209 µM (active) | 0.0776 µM (active) | 0.109 µM (active) | 0.248 µM (active) | 0.179 µM (active) | 0.0462 µM (active) | 0.0764 µM (active) | 0.684 µM (active) | 1.16 µM (inactive) | 1.69 µM (inactive) | 0.431 µM (active) | 0.281 µM (active) | 1.64 µM (inactive) | 0.121 µM (active) | 0.317 µM (active) | 0.0389 µM (active) | 1.53 µM (inactive)
9 | O=C1C(O)=C(Cl)C(=O)c2c(O)ccc(O)c21 | – | > 100 µM (inactive) | > 100 µM (inactive) | > 100 µM (inactive) | 10 µM (inactive) | > 100 µM (inactive) | > 100 µM (inactive) | > 100 µM (inactive) | > 100 µM (inactive) | > 100 µM (inactive) | > 100 µM (inactive) | > 100 µM (inactive) | > 100 µM (inactive) | > 100 µM (inactive) | > 100 µM (inactive) | > 100 µM (inactive) | > 100 µM (inactive) | > 100 µM (inactive) | > 100 µM (inactive) | > 100 µM (inactive)
10 | C=C1C(=O)O[C@H]2[C@@H](O)[C@H](C)CCC/C(C)=C/CC[C@@]3(C)O[C@@H]3C[C@@H]12 | 5.77 µM (inactive) | 3.4 µM (inactive) | 8.75 µM (inactive) | 4.06 µM (inactive) | 2.29 µM (inactive) | 8.73 µM (inactive) | 13.2 µM (inactive) | 3.5 µM (inactive) | 3.93 µM (inactive) | 12.9 µM (inactive) | 13.7 µM (inactive) | 16.7 µM (inactive) | 15.1 µM (inactive) | 16.8 µM (inactive) | 11.2 µM (inactive) | 6.03 µM (inactive) | 2.59 µM (inactive) | 11.8 µM (inactive) | 1.88 µM (inactive) | 20.5 µM (inactive)
11 | COc1ccc(/C(=N/N=c2\[nH]c3ccccc3n2Cc2ccccc2)C(=O)O)cc1 | 5.96 µM (inactive) | 14.7 µM (inactive) | 14.1 µM (inactive) | 22.7 µM (inactive) | 7.8 µM (inactive) | 11.1 µM (inactive) | 10 µM (inactive) | 6.92 µM (inactive) | 4.03 µM (inactive) | 23.3 µM (inactive) | 23.8 µM (inactive) | 25.7 µM (inactive) | 18.3 µM (inactive) | 17.5 µM (inactive) | 32 µM (inactive) | 30.7 µM (inactive) | 11.7 µM (inactive) | 15.5 µM (inactive) | 3.29 µM (inactive) | 23 µM (inactive)
12 | CN(C)C(=S)/N=c1\ssc(=S)n1Cc1cccs1 | 6.9 µM (inactive) | 8.51 µM (inactive) | 3.75 µM (inactive) | 2.1 µM (inactive) | 17.5 µM (inactive) | 3.76 µM (inactive) | 6.7 µM (inactive) | 4.11 µM (inactive) | 2.36 µM (inactive) | 4.42 µM (inactive) | 8.41 µM (inactive) | 6.05 µM (inactive) | 1.52 µM (inactive) | 3.39 µM (inactive) | 0.604 µM (active) | 3.24 µM (inactive) | 5.26 µM (inactive) | 1.04 µM (active) | 4.88 µM (inactive) | 5.27 µM (inactive)
13 | COc1cc(/C=C\c2ccc(SC)cc2)cc(OC)c1OC | 0.0667 µM (active) | 19.7 µM (inactive) | 0.0268 µM (active) | < 0.01 µM (active) | 0.0281 µM (active) | 0.0845 µM (active) | < 0.01 µM (active) | 0.0632 µM (active) | 0.0271 µM (active) | 0.0698 µM (active) | – | 0.0247 µM (active) | < 0.01 µM (active) | 0.0241 µM (active) | < 0.01 µM (active) | 0.043 µM (active) | 0.498 µM (active) | < 0.0152 µM (active) | < 0.01 µM (active) | 0.0215 µM (active)
14 | CN(Cc1ccccc1)C(=S)S [SODIUM BENZYL(METHYL)CARBAMODITHIOATE] | 52.4 µM (inactive) | 78.7 µM (inactive) | 45.1 µM (inactive) | 34.1 µM (inactive) | 20 µM (inactive) | 38 µM (inactive) | > 100 µM (inactive) | 52.2 µM (inactive) | 57.3 µM (inactive) | 88.5 µM (inactive) | 69.2 µM (inactive) | – | > 100 µM (inactive) | 56.1 µM (inactive) | 70.6 µM (inactive) | 53.5 µM (inactive) | 68.2 µM (inactive) | 48.3 µM (inactive) | 20.6 µM (inactive) | 33.5 µM (inactive)
